Publication PMC10652611 (Cell & Bioscience, 2023)

Tests used:
NK2 [1] = test: NanoBiT β-arrestin1 recruitment to NK2 (NK2-LgBiT/β-arr1-SmBiT); assay type: cell-based; conditions: for effect of aprepitant on NKA-stimulated β-arrestin1 recruitment: 10 nM NKA
Experimental: (§1) Ligand-stimulated β-arrestin recruitment to receptors was also examined using the NanoBiT system. The NanoBiT system was used to create construct combinations of receptors and β-arrestin, which were tagged with either SmBiT or LgBiT at N- or C-terminal. These constructs were then expressed in HEK293 cells.
(§2) NanoLuc Binary Technology (NanoBiT) was utilized to investigate protein–protein interaction. HEK293 cells were seeded in a 96-well white plate at a density of 2 × 10^4 cells per well. The following day, cells were transfected with 50 ng of each plasmid containing SmBiT- or LgBiT- tagged genes using 0.2 µl Lipofectamine 2000 (Invitrogen, Carlsbad, CA, USA). To investigate the effect of one receptor on another receptor in β-arrestin recruitment, 100 ng of un-tagged receptor was co-transfected with 50 ng of each of NanoBiT-tagged plasmid and mixed with 0.4 µl Lipofectamine 2000. At 24 h after transfection, the medium was changed to 100 µl of Opti-MEM and the plate was stabilized at room temperature for 10 min before adding NanoBiT substrate. If an inhibitor was used, it was pre-incubated at 37 ℃ for 20 min and at room temperature for 10 min before substrate addition. Baseline luminescence was measure for 10 min using a SpectraMax L plate reader (Molecular Devices, San Jose, CA, USA). After stimulation with ligands, the luminescence signal was continuously measured for 1 h.

[2] = cited from earlier work
NK1 = target: T1, NK1 (Homo sapiens, UniProt P25103); test: NanoBiT β-arrestin1 recruitment to NK1 (NK1-SmBiT/β-arr1-LgBiT); assay type: cell-based
T1 construct: expressed in transfected cells; host or cells: HEK293
Experimental: as §1, §2

[3] = tested on: human colorectal cancer cell DLD-1; conditions: cited from earlier work
Description: Although some studies have reported that NK1 and NK2 are expressed in some cancers, the role of NK2 in cancer remains controversial.

NK2 [4] = target: T2, NK2 (Homo sapiens, UniProt P21452); test: NanoBiT cytosolic Ca^2+ response, NK2; assay type: cell-based; conditions: HEK293 cells, NK2, Calmodulin-SmBiT/LgBiT-MYLK2S, luminescence
T2 construct: expressed in transfected cells; host or cells: HEK293
T2 sequence (P21452 1-398): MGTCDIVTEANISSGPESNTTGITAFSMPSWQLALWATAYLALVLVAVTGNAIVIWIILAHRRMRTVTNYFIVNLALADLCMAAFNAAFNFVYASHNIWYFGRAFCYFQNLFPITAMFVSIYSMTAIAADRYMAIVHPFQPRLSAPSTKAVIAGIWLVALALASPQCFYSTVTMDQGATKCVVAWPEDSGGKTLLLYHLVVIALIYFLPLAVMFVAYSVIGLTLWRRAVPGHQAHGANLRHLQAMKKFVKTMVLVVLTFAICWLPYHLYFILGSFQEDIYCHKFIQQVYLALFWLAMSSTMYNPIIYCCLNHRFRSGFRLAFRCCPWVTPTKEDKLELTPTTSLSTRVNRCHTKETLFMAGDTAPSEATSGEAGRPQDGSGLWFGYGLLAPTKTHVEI
Experimental: NKs have been extensively studied, especially with respect to neuropeptide-stimulated Ca^2+ responses. Recently, we developed a real-time calcium assay based on NanoBiT and the Ca^2+-dependent interaction of calmodulin and its target proteins to analyze NK-mediated cellular responses. First, neuropeptide-stimulated luciferase activation was measured in cells expressing NKs and calcium probes to determine the suitability of our assay method. […] Next, the activation efficiency of receptors by each peptide was investigated on Ca^2+ responses based on NanoBiT assay.
NanoLuc Binary Technology (NanoBiT) was utilized to investigate protein–protein interaction. HEK293 cells were seeded in a 96-well white plate at a density of 2 × 10^4 cells per well. The following day, cells were transfected with 50 ng of each plasmid containing SmBiT- or LgBiT- tagged genes using 0.2 µl Lipofectamine 2000 (Invitrogen, Carlsbad, CA, USA). […] Baseline luminescence was measure for 10 min using a SpectraMax L plate reader (Molecular Devices, San Jose, CA, USA). After stimulation with ligands, the luminescence signal was continuously measured for 1 h.
Cytosolic Ca^2+ changes were detected using a NanoBiT system as described previously. […]

[5] = target: Neurokinin-1 receptor, C-terminal SmBiT- or LgBiT-tagged (UniProt P25103 1-407); test: cell-based or functional assay
Chain of Neurokinin-1 receptor, C-terminal SmBiT- or LgBiT-tagged (P25103 whole entry): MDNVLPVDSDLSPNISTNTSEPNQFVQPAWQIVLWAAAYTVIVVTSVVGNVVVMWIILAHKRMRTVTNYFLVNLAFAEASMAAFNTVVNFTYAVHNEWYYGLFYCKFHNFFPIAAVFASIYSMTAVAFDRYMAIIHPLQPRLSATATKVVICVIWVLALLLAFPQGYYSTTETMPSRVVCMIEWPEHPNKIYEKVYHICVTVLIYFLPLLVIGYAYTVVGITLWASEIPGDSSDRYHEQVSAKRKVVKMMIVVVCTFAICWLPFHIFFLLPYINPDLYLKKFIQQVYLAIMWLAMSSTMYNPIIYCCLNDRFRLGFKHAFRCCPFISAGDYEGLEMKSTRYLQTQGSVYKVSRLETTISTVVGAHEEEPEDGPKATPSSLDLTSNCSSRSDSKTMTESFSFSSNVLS

T1 sequence (P25103 whole entry): as above

C[C@@H](O[C@H]1OCCN(Cc2n[nH]c(=O)[nH]2)[C@H]1c1ccc(F)cc1)c1cc(C(F)(F)F)cc(C(F)(F)F)c1 [aprepitant]
effect of aprepitant on SP-stimulated NK2/β-arrestin1 interaction (NK2 [1]; NK2-LgBiT/β-arr1-SmBiT + intact NK1, 10 nM SP, aprepitant): inhibited luciferase activities
effect of aprepitant on NKA-stimulated β-arrestin1 recruitment (NK2 [1]; NK2-LgBiT/β-arr1-SmBiT + intact NK1, aprepitant 30 min): not downregulated
effect of aprepitant on SP-stimulated β-arrestin1 recruitment (NK2 [1]; NK2-LgBiT/β-arr1-SmBiT, 1 μM aprepitant 30 min, 1 μM SP): not affected
effect of aprepitant on NKA-stimulated β-arrestin1 recruitment (NK2 [1]; NK2-LgBiT/β-arr1-SmBiT, aprepitant 30 min): not influenced
antitumor activity [2]: antitumor activities through promoting apoptotic mechanisms
SP-stimulated luciferase activities in the presence of aprepitant and intact NK2 (NK1; NK1-SmBiT/β-arr1-LgBiT + intact NK2, 1 μM aprepitant 30 min, 1 μM SP): slightly increased by SP even in the presence of the inhibitor
NKA-stimulated luciferase activities in the presence of aprepitant and intact NK2 (NK1; NK1-SmBiT/β-arr1-LgBiT + intact NK2, aprepitant 30 min, 10 nM NKA): slightly increased by NKA in the presence of aprepitant
effect of aprepitant on SP-stimulated β-arrestin1 recruitment (NK1; NK1-SmBiT/β-arr1-LgBiT, 1 μM aprepitant 30 min, 1 μM SP): completely inhibited
effect of aprepitant on NKA-stimulated β-arrestin1 recruitment (NK1; NK1-SmBiT/β-arr1-LgBiT, aprepitant 30 min, 10 nM NKA): inhibited
effect on AKT/mTOR and Wnt/β-catenin signaling pathways [3]: suppression of AKT/mTOR and Wnt/β-catenin signaling pathways

CSCC[C@H](NC(=O)[C@H](CC(C)C)NC(=O)CNC(=O)[C@@H](NC(=O)[C@H](Cc1ccccc1)NC(=O)[C@H](Cc1ccccc1)NC(=O)[C@H](CC(=O)O)NC(=O)[C@H](Cc1c[nH]cn1)NC(=O)[C@H](CCSC)NC(=O)[C@@H](N)CC(=O)O)C(C)C)C(N)=O [NKB, neurokinin B]
EC50 (NK2 [4]): 0.24 nM

B1: Neurokinin-2 receptor, C-terminal SmBiT- or LgBiT-tagged (receptor, UniProt P21452 1-398, looked up)
chain: T2 sequence (P21452 1-398)
EC50 of SP for recruitment of β-arrestin1-SmBiT to NK2-LgBiT (NanoBiT luciferase) with intact NK1 co-expressed [5]: 164 nM
